Reference: patent publication US9326515B2, “Fungicidal 3-[(1,3-thiazol-4-ylmethoxyimino)(phenyl)methyl]-2-substituted-1,2,4-oxadiazol-5(2H)-one derivatives” (BAYER INTELLECTUAL PROPERTY GMBH, priority 2011, dated 2016)

Conditions: pH 2.7

SMILES	LogP
COc1cccc(C(=NOCc2csc(NC(=O)OCCc3ccccc3)n2)c2nc(=O)on2C)c1 [Example 85]	3.39
CC(OC(=O)Nc1nc(CO/N=C(/c2ccccc2)c2nc(=O)on2C)cs1)C1CCCCC1 (racemic) [Example 56]	4.31
CC#CCC(C)OC(=O)Nc1nc(CON=C(c2ccccc2)c2nc(=O)on2C)cs1 (centres unmarked) [Example 81]	3.06
CCCCC(=O)Nc1nc(CO/N=C(/c2ccccc2)c2nc(=O)on2C)cs1 [Example 60]	2.80
Cn1oc(=O)nc1/C(=N\OCc1csc(NC(=O)CC2CCCC2)n1)c1ccccc1 [Example 53]	3.19
Cn1oc(=O)nc1C(=NOCc1csc(NC(=O)Cc2ccccc2)n1)c1ccccc1 [Example 65]	2.82
Cn1oc(=O)nc1C(=NOCc1csc(NC(=O)OCCCCC(F)(F)F)n1)c1ccccc1 [Example 82]	3.27
COc1cccc(C(=O)Nc2nc(CON=C(c3ccccc3)c3nc(=O)on3C)cs2)c1 [Example 71]	2.98
Cn1oc(=O)nc1/C(=N\OCc1csc(NC(=O)CCc2ccccc2)n1)c1ccccc1 [Example 57]	3.09
CC=CCCCOC(=O)Nc1nc(CON=C(c2ccccc2)c2nc(=O)on2C)cs1 [Example 77]	3.55
Cc1ccc(C(=O)Nc2nc(CO/N=C(/c3ccccc3)c3nc(=O)on3C)cs2)cc1 [Example 48]	3.17
Cn1oc(=O)nc1/C(=N\OCc1csc(NC(=O)C2CCCC2)n1)c1ccccc1 [Example 58]	2.88
CC(C)C(C)OC(=O)Nc1nc(CO/N=C(/c2ccccc2)c2nc(=O)on2C)cs1 (racemic) [Example 46]	3.35
COc1ccc(OC(=O)Nc2nc(CO/N=C(/c3ccccc3)c3nc(=O)on3C)cs2)cc1 [Example 97]	2.94
CC#CCOC(=O)Nc1nc(CO/N=C(/c2ccccc2)c2nc(=O)on2C)cs1 [Example 47]	2.66
C#CCOC(=O)Nc1nc(CON=C(c2ccccc2)c2nc(=O)on2C)cs1 [Example 67]	2.49

SMILES	LogP
CC(OC(=O)Nc1nc(CO/N=C(/c2ccccc2)c2nc(=O)on2C)cs1)C1CCCC1 (centres unmarked) [Example 95]	3.85
Cn1oc(=O)nc1C(=NOCc1csc(NC(=O)Oc2ccc(F)cc2)n1)c1ccccc1 [Example 5]	3.02
Cn1oc(=O)nc1C(=NOCc1csc(NC(=O)c2ccc(F)cc2)n1)c1ccccc1 [Example 91]	3.00
CC(C)CC(=O)Nc1nc(CO/N=C(/c2ccccc2)c2nc(=O)on2C)cs1 [Example 62]	2.75
Cn1oc(=O)nc1C(=NOCc1csc(NC(=O)OCCC2CC2)n1)c1ccccc1 [Example 78]	3.15
Cn1oc(=O)nc1C(=NOCc1csc(NC(=O)C2(C)CCCCC2)n1)c1ccccc1 [Example 74]	3.58
Cn1oc(=O)nc1C(=NOCc1csc(NC(=O)OCC2CC2)n1)c1ccccc1 [Example 88]	2.84
Cn1oc(=O)nc1C(=NOCc1csc(NC(=O)OCCCC2CC2)n1)c1ccccc1 [Example 79]	3.51
Cn1oc(=O)nc1/C(=N\OCc1csc(NC(=O)OCC(C)(C)C)n1)c1ccccc1 [Example 61]	3.39
CCCCCOC(=O)Nc1nc(CON=C(c2ccccc2)c2nc(=O)on2C)cs1 [Example 69]	3.51
COc1cccc(C(=NOCc2csc(NC(=O)COc3ccccc3)n2)c2nc(=O)on2C)c1 [Example 84]	3.02
Cn1oc(=O)nc1/C(=N\OCc1csc(NC(=O)CCC2CCCC2)n1)c1ccccc1 [Example 43]	3.58
CCC#CCOC(=O)Nc1nc(CON=C(c2ccccc2)c2nc(=O)on2C)cs1 [Example 72]	2.98
Cn1oc(=O)nc1C(=NOCc1csc(NC(=O)OCCCC2CCCC2)n1)c1ccccc1 [Example 66]	4.36
CCC(C)(C)C(=O)Nc1nc(CON=C(c2ccccc2)c2nc(=O)on2C)cs1 [Example 87]	3.13
CC(C)CCOC(=O)Nc1nc(CO/N=C(/c2ccccc2)c2nc(=O)on2C)cs1 [Example 55]	3.44
